Measurements: patent publication US20250304916A1, “METHODS AND COMPOSITIONS FOR GENERATING VASCULAR LEPTOMENINGEAL CELLS” (Trailhead Biosystems Inc., priority 2024, published 2025)
Where “and” joins values, the source holds several entries; their conditions need not be identical. Identical values can stand only once.

Experiments:
Format in all cases: cell-based, human
[1] = system: OLIG1 and NKX2-2 expression; assay: HD-DoE 12-factor modeling experiment (stage 3), models optimized for maximal expression of OLIG1 and NKX2-2 simultaneously; settings: FIG. 5; for factor contribution, positive effect on upregulation of OLIG1 and NKX2-2: models optimized for OLIG1 (192) and NKX2-2 (486) simultaneously
Protocol: (§1) To engineer the recipe of stage 3 of differentiation, cells were first cultured in stage 1 and stage 2 media (described in detail in US Publications 2022/0315891 and 2024/0043798). Then, 48 or 96 different combinations of effectors generated using HD-DoE compression through D-optimality were robotically prepared. The effector combinations were prepared in a basal media and were subsequently added to the cells, which were then allowed to differentiate. 3 days later RNA extraction was performed, and gene expression was obtained using quantitative PCR analysis. The data was normalized and modeled using partial least squares regression analysis to the effector design, resulting in the generation of gene-specific models, which after model tuning for maximal predictive power, provided explanation of the effectors ability to control the expression of individual genes, combinatorically, and individually. Solutions within the tested space were then further explored to address desirability.
Another 12-factor modeling experiment was performed to study the effect of additional factors on expression level of target genes at stage 3. In this experiment, Activin A, Linoleic acid (a polyunsaturated fatty acid), DBZ (GSI-XX) (a NOTCH pathway inhibitor), ZM336372 (a c-Raf inhibitor), AZD3147 (a mTOR pathway inhibitor), PDGF-AA (a PDGF pathway agonist) and MK2206 (an Akt pathway inhibitor), along with AGN193109, TTNPB, FGF2, IGF-1, and MHY1485, were tested. According to literature, proteins such as FGF-2, IGF-1, and PDGF-AA play an important role in oligodendrocyte differentiation (Goldman and Kuypers (2015) Development 142:3983-95). Models were optimized for maximal expression of OLIG1 with expression level of 192 and NKX2-2 with expression level of 486 simultaneously. […] MK2206 with factor contribution of 19 had the highest negative impact on expression of these genes. […] To confirm the impact of identified factors on a bigger scale, the expression profile of a larger group of genes defining late oligodendrocyte progenitor population (Perlman et al. (2020) Glia 68:1291-1303; Goldman and Kuypers (2015) Development 142:3983-95; van Tilborg et al. (2018) Glia 66:221-238) was investigated. At maximal expression of OLIG1 and NKX2-2, other desired genes such as CNP, IGFBP2, MYC, and MYT-1 were highly expressed, while neuronal genes, NEUROD1, NEUROG1, and NEUROG2 had expression levels less than 30.

SOX10 expression = assay: HD-DoE 8-factor modeling experiment (stage 3), model optimized for maximum expression of SOX10, qPCR gene expression; settings: for effect on expression of SOX10 (dynamic profile): model optimized for maximal SOX10 expression, FIG. 4; for factor contribution, positive regulatory effect on SOX10 expression: model optimized for maximum expression of SOX10 at 40
Protocol: as §1
(§2) In one 8-factor modeling experiment, the individual and combinatorial effect of CHIR99021 (a WNT pathway agonist), AGN193109 (an RA pathway antagonist), FGF-2 (FGFR pathway agonist), Purmorphamine (a SHH pathway agonist), TTNPB (an RA pathway agonist), IGF-1 (an IGF-1 pathway agonist), MHY1485 (a mTOR pathway agonist), and Sc79 (an Akt pathway agonist), on further differentiation of cells were tested. […] Sc79 had the highest negative impact on its expression with factor contribution of 30.

PDGFRA expression = assay: HD-DoE 8-factor modeling experiment (stage 3), model optimized for maximum expression of PDGFRA; settings: FIG. 2; for factor contribution, positive impact on PDGFRA expression: model optimized for maximum expression of PDGFRA at 853; for factor contribution, negative impact on PDGFRA expression: model optimized for maximum expression of PDGFRA
Protocol: as §1, §2
The highest positive contribution was from Purmorphamine with factor contribution of 21 and IGF-1 with factor contribution of 11. MHY1485 and AGN193109 had the highest negative impact with factor contribution of 21 and 23, respectively (FIG. 2). […] When the model was optimized, expression levels were observed of NKX2-2 at 1200, OLIG1 at 550, OLIG2 at 1000, PDGFRA at 500, SOX8 at 70, and SOX10 at 35 (FIG. 4).

SOX8 expression = assay: HD-DoE 8-factor modeling experiment (stage 3), model optimized for maximal expression of SOX8; settings: FIG. 3
Protocol: as §1
In one 8-factor modeling experiment, the individual and combinatorial effect of CHIR99021 (a WNT pathway agonist), AGN193109 (an RA pathway antagonist), FGF-2 (FGFR pathway agonist), Purmorphamine (a SHH pathway agonist), TTNPB (an RA pathway agonist), IGF-1 (an IGF-1 pathway agonist), MHY1485 (a mTOR pathway agonist), and Sc79 (an Akt pathway agonist), on further differentiation of cells were tested. […]

MBP expression = assay: HD-DoE 8-factor model (stage 4), optimized for maximum expression of MBP; settings: model optimized for MBP at 274; FIG. 6

Compound: CCCCC/C=C\C/C=C\CCCCCCCC(=O)O [linoleic acid]
- factor contribution, positive effect on upregulation of OLIG1 and NKX2-2 [1]: 12

Compound: C/C(=C\c1ccc(C(=O)O)cc1)c1ccc2c(c1)C(C)(C)CCC2(C)C [TTNPB]
- effect on expression of SOX10 (dynamic profile) (SOX10 expression): positive effect
- factor contribution, positive regulatory effect on SOX10 expression (SOX10 expression; FIG. 1): 18
- factor contribution, positive impact on PDGFRA expression (PDGFRA expression): 0.6

Compound: Cc1c[nH]c(-c2cnc(NCCNc3ccc(C#N)cn3)nc2-c2ccc(Cl)cc2Cl)n1 [CHIR99021]
- effect on expression of SOX10 (dynamic profile) (SOX10 expression): positive effect
- factor contribution, positive regulatory effect on SOX10 expression (SOX10 expression; FIG. 1): 8
- factor contribution, positive impact on PDGFRA expression (PDGFRA expression): 8

Compound: NC1(c2ccc(-c3nc4ccn5c(=O)[nH]nc5c4cc3-c3ccccc3)cc2)CCC1 [MK2206]
- factor contribution, negative impact on expression of OLIG1 and NKX2-2 ([1]; models optimized for OLIG1 and NKX2-2 simultaneously): 19

Compound: FGF-2: FGFR pathway agonist; naturally occurring ligand
- effect on expression of SOX10 (dynamic profile) (SOX10 expression): positive effect
- factor contribution, positive regulatory effect on SOX10 expression (SOX10 expression; FIG. 1): 15

Compound: O=[N+]([O-])c1ccc(Nc2nc(N3CCOCC3)nc(N3CCOCC3)n2)cc1 [MHY1485]
- factor contribution, positive effect on SOX8 expression (SOX8 expression): 13 and 13.2
- factor contribution, negative impact on PDGFRA expression (PDGFRA expression): 21

Compound: IGF-1: insulin-like growth factor 1; an IGF-1 pathway agonist
- expression level of SOX10 after addition of IGF-1 to the suggested recipe (SOX10 expression; dynamic profile analysis, decreased from 40 without IGF-1): 35
- factor contribution, positive effect on SOX8 expression (SOX8 expression): 16 and 15.6
- factor contribution, positive impact on PDGFRA expression (PDGFRA expression): 11 and 11.22

Compound: CCOC(=O)C1=C(N)Oc2ccc(Cl)cc2C1C(C#N)C(=O)OCC (centres unmarked) [Sc79]
- factor contribution, negative impact on SOX10 expression (SOX10 expression; model optimized for maximum expression of SOX10, FIG. 1): 30

Compound: N[C@@H](Cc1cc(I)c(Oc2ccc(O)c(I)c2)c(I)c1)C(=O)O [T3]
- factor contribution, positive impact on MBP expression (MBP expression): 18.1

Compound: Cc1ccc(C2=CCC(C)(C)c3ccc(C#Cc4ccc(C(=O)O)cc4)cc32)cc1 [AGN193109]
- factor contribution, negative impact on PDGFRA expression (PDGFRA expression): 23

Compound: Dibenzazepine [DBZ]
- factor contribution, positive effect on upregulation of OLIG1 and NKX2-2 [1]: 13
- factor contribution, positive effect on upregulation of OLIG1 and NKX2-2 ([1]; listed as GSI-XX (DBZ)): 13.2
- factor contribution, positive impact on MBP expression (MBP expression): 18.1

Compound: PDGF-AA: a PDGF pathway agonist; ligand of a PDGFR
- factor contribution, positive effect on upregulation of OLIG1 and NKX2-2 [1]: 21

Compound: c1ccc2c(Oc3nc(Nc4ccc(N5CCOCC5)cc4)c4ncn(C5CCCCC5)c4n3)cccc2c1 [Purmorphamine]
- factor contribution, positive impact on PDGFRA expression (PDGFRA expression): 21 and 20.6
